Measurements from publication PMC6150271, “‘Click Chemistry’ Synthesis of Novel Natural Product-Like Caged Xanthones Bearing a 1,2,3-Triazole Moiety with Improved Druglike Properties as Orally Active Antitumor Agents” (Molecules : A Journal of Synthetic Chemistry and Natural …, 2017).
In brackets after ≈: the same amount, converted by molar mass. Where two headings read alike, the source gives them in different places. Marks after values point to notes of the source that are not given here. One block for each compound: values may come before it.

How the values were obtained:
[1] = test system: taxol-resistant A549 cell line (A549/taxol); experiment: MTT antiproliferative assay, A549/taxol; format: cell-based; details: Homo sapiens
Description: (§1) The antiproliferative activity of the ten synthesized caged xanthone derivatives, as well as the lead compound DDO-6101 and GA were assessed with the 3-(4,5-dimethylthiazol-2-yl)-2,5-diphenyltetrazolium bromide (MTT) assay, as previously reported, against six human cancer cell lines, including the human lung carcinoma A549 cell line, taxol-resistant A549 cell line (A549/taxol), cisplatin-resistant A549 cell line (A549/cisplatin), the human hepatocellular carcinoma HepG2 cell line, the human colon carcinoma HCT-116 cell line, and the human glioblastoma U251 cell line. DDO-6101 and GA were used as positive controls for the in vitro assay.
(§2) Cancer cell lines were obtained from Cell Bank of Shanghai, Chinese Academy of Sciences. Cells were cultured in 90% RPMI 1640 medium (GIBCO, Invitrogen Corporation, New York, NY, USA) supplemented with 10% fetal bovine serum (Sijiqing Biotechnology Co., Hangzhou, China), 100 U/mL benzyl penicillin, and 100 μg/mL streptomycin in a humidified environment with 5% CO2 at 37 °C. All the tested compounds were dissolved in DMSO at a concentration of 0.01 mol/L and stored at −4 °C.
(§3) The inhibition of tumour cell growth was measured by a modified tetrazolium (MTT) salt assay. Cells were cultured in a 96-well plate and treated with culture medium alone or different concentrations of the compounds. The cells were incubated for 72 h, and then the MTT assay reagent was added. After a 4 h incubation, the formazan product was quantitated at 570 nm. The IC50 values (the concentrations that gave rise to 50% inhibition of cell viability) were calculated using GraphPad Prism 6 using a variable slope (four parameters).

[2] = test system: cisplatin-resistant A549 cell line (A549/cisplatin); experiment: MTT antiproliferative assay, A549/cisplatin; format: cell-based; details: Homo sapiens, 72 h
Description: as §1, §2, §3

[3] = test system: human colon carcinoma HCT-116 cell line; experiment: MTT antiproliferative assay, HCT116; format: cell-based; details: 72 h
Description: as §1, §2, §3

[4] = test system: U2OS cells; experiment: MTT antiproliferative assay, U2OS; format: cell-based; details: Homo sapiens, 72 h
[5] = logD by potentiometric titration (Gemini Profiler); format: physicochemical; details: measured on Gemini Profiler instrument (pION); for logD: pH 7.4, read-out: Log D 7.4
[6] = physchem; details: thermodynamic from solid
Text: (§4) In parallel with the in vitro antitumor activity testing, the physicochemical properties of the target caged xanthone derivatives were theoretically predicted and experimentally determined in an effort to identify potential druglike compounds prior to the time-consuming and costly development and optimization of derivatives that may ultimately fail in efficacy experiments in vivo. The partition coefficient (logD) was experimentally determined on a Gemini Profiler instrument (pION, Inc., Woburn, MA, USA) by a potentiometric titration method. The polar surface area (PSA), as well as intestinal absorption level, were theoretically predicted by Accelrys Discovery Studio 4.0 (BIOVIA, San Diego, CA, USA) using the ADMET protocol. […] The permeability coefficient (Pe) was determined using a standard parallel artificial membrane permeability assay (PAMPA) on a PAMPA Explorer instrument (pION).
(§5) A HPLC system with an ultraviolet (UV) detector was used to detect the solubility of the compounds. The optimal wavelength was 290 nm. Ethanol/water (85:15) was an efficient eluent at a flow rate of 0.5 mL/min. The compounds were stirred in deionized water overnight to maximize the retention of the compounds in solution. Then, the solutions were filtered and the supernatant was used as a fluid sample for HPLC detection. The permeability (Pe) of the compounds was tested with the help of a standard PAMPA (pION). PAMPA was performed on a PAMPA Explorer instrument (pION) with the PAMPA Explorer command software (Version 3.7.4.1). The compounds were diluted to 10 mM with the system solution buffer (pH 7.4). Then, 150 μL of the diluted compound solution was transferred to a UV plate, and the UV spectrum was collected and used as a reference. Then, paint the membrane with 5 μL of gastrointestinal tract (GIT) lipid. The acceptor chamber was filled with 200 μL of acceptor solution buffer, and the donor chamber was filled with 200 μL of diluted compound solution. The PAMPA sandwich was assembled and left at 25 °C for 4 h. The UV spectra (240–500 nm) from the donor and the acceptor were collected. The permeability coefficient was calculated with the PAMPA Explorer Command software (Version 3.7.4.1) based on the area under the curve (AUC) of the reference plate, the donor plate, and the acceptor plate. The permeability coefficient of the compound was tested for four times, and the data are shown as the average values.

[7] = in vitro
Text: as §4
as §5, with “The PAMPA sandwich was assembled and left at 25 °C for 4 h.” left out

[8] = test system: human lung carcinoma A549 cell line; experiment: MTT antiproliferative assay, A549; format: cell-based; details: Homo sapiens, A549; MTT, 72 h
Description: as §1, §2, §3

[9] = test system: human hepatocellular carcinoma HepG2 cell line; experiment: MTT antiproliferative assay, HepG2; format: cell-based; details: 72 h
Description: as §1, §2, §3

[10] = test system: lung cancer A549 transplanted mouse model; experiment: In vivo tumor growth inhibition, intravenous administration; set-up: species or system Kunming mice; details: 20 mg/kg
Description: The lung cancer A549 transplanted mouse model was employed. DDO-6101 and antitumor drug 5-fluorouracil (5-FU) were also tested for comparison.
Kunming mice with body weights of 18–22 g were transplanted with lung cancer A549 cells according to protocols of transplant tumor research, as previously reported. Twenty-four hours after tumor transplantation, animals were weighed and randomly divided into five groups. All test drugs were given […] 24 h after tumor transplantation. The treated groups were intravenously injected or administered per os different doses of test compounds, respectively. The negative control group received 0.9% normal saline. Treatments were conducted at a frequency of one dose per two days for the intravenous group or one dose per day for the per os group for two or one week, respectively. All animals were sacrificed 24 h after the final treatment. All data are presented as mean ± SD and the statistical significance was evaluated by t-test.

[11] = A549/Taxol, MTT, 72 h, read-out: IC50 A549/Taxol

Structure (SMILES): CC(C)=CCC[C@]1(C)C=Cc2c(O)c3c(c(CC=C(C)C)c2O1)O[C@]12C(=C[C@@H]4C[C@H]1C(C)(C)O[C@@]2(C/C=C(/C)C(=O)O)C4=O)C3=O [GA, Gambogic acid, reference compound]
IC50 [1, 11]: 0.29 ± 0.04 µM
IC50 [2]: 2.5 ± 0.06 µM
IC50 [3]: 0.34 ± 0.08 µM
IC50 [4]: 4.67 ± 0.11 µM
Log D 7.4 [5]: 3.6
solubility ([6]; water): < 5 µM
Pe range ([7]; PAMPA, 4 h, 10 mM): 0.9–2.3 × 10^–6 cm/s
Papp at 4 h, 10 mM ([7]; PAMPA, pH 5): 0.9 ± 0.5 ×10⁻⁶ cm/s
Pe pH=6.2 ([7]; pH 6.2): 1.8±0.2 10-6 cm/s
Pe pH=7.4 ([7]; pH 7.4): 2.3±0.3 10-6 cm/s

Structure (SMILES): CC(C)=CCC12OC(C)(C)C3CC(C=C4C(=O)c5c(OCc6cn(CCCN7CCCC7)nn6)cccc5OC431)C2=O (stereo not drawn) [Compound 8d]
IC50 [8]: 2.62 ± 0.04 µM
IC50 [1, 11]: 1.7 ± 0.12 µM
IC50 [2]: 0.89 ± 0.24 µM
IC50 [9]: 4.48 ± 0.29 µM
IC50 [3]: 1.02 ± 0.03 µM
IC50 [4]: 3.05 ± 0.07 µM
logD [5]: 1.6
solubility ([6]; deionized water): 1920 µM (≈ 1100 µg/mL)
Papp at 4 h, 10 mM ([7]; pH 5): 15.4 ± 2.1 ×10⁻⁶ cm/s
Papp at 4 h, 10 mM ([7]; pH 6.2): 52.8 ± 1.6 ×10⁻⁶ cm/s
Papp at 4 h, 10 mM ([7]; pH 7.4): 66.4 ± 8.4 ×10⁻⁶ cm/s
melting point: 144 to 146 °C

Structure (SMILES): CC(C)=CCC12OC(C)(C)C3CC(C=C4C(=O)c5c(OCc6cn(CCN7CCCCC7)nn6)cccc5OC431)C2=O (stereo not drawn) [Compound 8e]
IC50 [8]: 2.17 ± 0.12 µM
IC50 [1, 11]: 2.03 ± 0.11 µM
IC50 [2]: 1.29 ± 0.48 µM
IC50 [9]: 4.85 ± 0.39 µM
IC50 [3]: 2.14 ± 0.18 µM
IC50 [4]: 4.66 ± 0.03 µM
logD [5]: 2.9
solubility ([6]; deionized water): 560 µM (≈ 321 µg/mL)
Papp at 4 h, 10 mM ([7]; pH 5): 47.8 ± 4.7 ×10⁻⁶ cm/s
Papp at 4 h, 10 mM ([7]; pH 6.2): 57.2 ± 1.4 ×10⁻⁶ cm/s
Papp at 4 h, 10 mM ([7]; pH 7.4): 78.2 ± 8.8 ×10⁻⁶ cm/s
Pe range ([7]; range under different pH from 5.0 to 7.4): 47.0–78.2 × 10^–6 cm/s
melting point: 173 to 176 °C

Structure (SMILES): O=c1[nH]cc(F)c(=O)[nH]1 [Compound 5-FU, 5-fluorouracil, reference compound]
Body Weight Pre-Dose ([10]; pre-dose): 20.25 ± 1.27 g
Body Weight After-Dose ([10]; two weeks): 24.43 ± 2.62 g
Inhibitory Rate ([10]; two weeks): 64.71%
Weight of Tumor ([10]; two weeks): 0.48 ± 0.17 ^b g

Second part, the compound after the results:

IC50 [8]: 1.03 ± 0.06 µM
IC50 [1, 11]: 0.55 ± 0.08 µM
IC50 ([1]; range over both resistant A549 lines and both compounds, read-out: IC50 values, taxol-resistant and cisplatin-resistant A549 cell lines): 0.33 to 0.55 µM
IC50 [2]: 0.36 ± 0.04 µM
IC50 [9]: 3.07 ± 0.13 µM
IC50 [3]: 0.95 ± 0.12 µM
IC50 [4]: 0.73 ± 0.07 µM
logD [5]: 0.9
solubility ([6]; deionized water): 3700 µM (≈ 2180 µg/mL)
Papp at 4 h, 10 mM ([7]; pH 5): 40 ± 0.1 ×10⁻⁶ cm/s
Papp at 4 h, 10 mM ([7]; pH 6.2): 58 ± 6.1 ×10⁻⁶ cm/s
Papp at 4 h, 10 mM ([7]; pH 7.4): 72.6 ± 0.1 ×10⁻⁶ cm/s
melting point: 143 to 145 °C
Structure (SMILES): CC(C)=CCC12OC(C)(C)C3CC(C=C4C(=O)c5c(OCc6cn(CCCN7CCOCC7)nn6)cccc5OC431)C2=O (stereo not drawn) [Compound 8h]

IC50 [8]: 1.07 ± 0.28 µM
IC50 [1, 11]: 1.29 ± 0.08 µM
IC50 [2]: 1.32 ± 0.12 µM
IC50 [9]: 6.3 ± 0.48 µM
IC50 [3]: 1.39 ± 0.04 µM
IC50 [4]: 2.07 ± 0.11 µM
logD [5]: 2.7
solubility ([6]; deionized water): 880 µM (≈ 516 µg/mL)
Papp at 4 h, 10 mM ([7]; pH 5): 34.9 ± 3.6 ×10⁻⁶ cm/s
Papp at 4 h, 10 mM ([7]; pH 6.2): 55.1 ± 0.8 ×10⁻⁶ cm/s
Papp at 4 h, 10 mM ([7]; pH 7.4): 68.7 ± 5.3 ×10⁻⁶ cm/s
melting point: 125 to 128 °C
Structure (SMILES): CC(C)=CCC12OC(C)(C)C3CC(C=C4C(=O)c5c(OCc6cn(CCCN7CCCCC7)nn6)cccc5OC431)C2=O (stereo not drawn) [Compound 8f]

IC50 [8]: 3.33 ± 0.49 µM
IC50 [1, 11]: 2.12 ± 0.09 µM
IC50 [2]: 0.78 ± 0.08 µM
IC50 [9]: 5.35 ± 0.23 µM
IC50 [3]: 6.15 ± 0.86 µM
IC50 [4]: 9.51 ± 1.52 µM
logD [5]: 1
solubility ([6]; deionized water): 3220 µM (≈ 1890 µg/mL)
Papp at 4 h, 10 mM ([7]; pH 5): 11.3 ± 0.6 ×10⁻⁶ cm/s
Papp at 4 h, 10 mM ([7]; pH 6.2): 41.5 ± 1.3 ×10⁻⁶ cm/s
Papp at 4 h, 10 mM ([7]; pH 7.4): 67.5 ± 4.2 ×10⁻⁶ cm/s
melting point: 171 to 175 °C
Structure (SMILES): CC(C)=CCC12OC(C)(C)C3CC(C=C4C(=O)c5c(OCc6cn(CCN7CCN(C)CC7)nn6)cccc5OC431)C2=O (stereo not drawn) [Compound 8i]

IC50 [8]: 0.93 ± 0.08 µM
IC50 [1, 11]: 0.82 ± 0.08 µM
IC50 [2]: 1.29 ± 0.11 µM
IC50 [9]: 2.91 ± 0.03 µM
IC50 [3]: 1.09 ± 0.21 µM
IC50 [4]: 5.86 ± 0.21 µM
logD [5]: 0.7
solubility ([6]; deionized water): 4020 µM (≈ 2420 µg/mL)
Papp at 4 h, 10 mM ([7]; pH 5): 9.7 ± 0.5 ×10⁻⁶ cm/s
Papp at 4 h, 10 mM ([7]; pH 6.2): 43.2 ± 0.7 ×10⁻⁶ cm/s
Papp at 4 h, 10 mM ([7]; pH 7.4): 64.9 ± 5.4 ×10⁻⁶ cm/s
melting point: 126 to 129 °C
Structure (SMILES): CC(C)=CCC12OC(C)(C)C3CC(C=C4C(=O)c5c(OCc6cn(CCCN7CCN(C)CC7)nn6)cccc5OC431)C2=O (stereo not drawn) [Compound 8j]

Pe pH=7.4 ([7]; pH 7.4): 127.5±15.8 10-6 cm/s
Pe pH=7.4 ([7]; pH 7.4, listed as propranolol): 127.5 10-6 cm/s
Structure (SMILES): CC(C)NCC(O)COc1cccc2ccccc12 (stereo not drawn) [Propranolol, reference compound]
